Measured values published in the NIST ThermoML archive (doi:10.1021/acs.jced.6b00750).
Numbers after ± are expanded uncertainties.

Test: xn = mol fraction of the nth substance listed
Conditions: Liquid; for mass density: Vibrating wire densiometer; for viscosity: Vibrating wire viscometry

C [methane] + CCCCCCCCCCCCCCCC
Conditions | mass density [kg/m3] | viscosity [mPa·s]
298.15 K, 10230 kPa, x1 = 0.1013 | 781.6 ± 2.4 | 3.304 ± 0.07
298.15 K, 19830 kPa, x1 = 0.1013 | 786.5 ± 2.4 | 3.687 ± 0.078
298.21 K, 20070 kPa, x1 = 0.2976 | 780.7 ± 2.3 | 3.712 ± 0.08
298.21 K, 30320 kPa, x1 = 0.2976 | 786 ± 2.4 | 4.196 ± 0.088
298.22 K, 10040 kPa, x1 = 0.2021 | 775.4 ± 2.3 | 3.308 ± 0.071
298.22 K, 19950 kPa, x1 = 0.2021 | 781.3 ± 2.4 | 3.742 ± 0.079
298.33 K, 13910 kPa, x1 = 0.3979 | 781.1 ± 2.4 | 3.321 ± 0.071
298.33 K, 20030 kPa, x1 = 0.3979 | 784.6 ± 2.4 | 3.548 ± 0.075
298.33 K, 30040 kPa, x1 = 0.3979 | 791 ± 2.4 | 3.938 ± 0.083
323.22 K, 10080 kPa, x1 = 0.1013 | 765.4 ± 2.3 | 1.993 ± 0.042
323.22 K, 20170 kPa, x1 = 0.1013 | 771.2 ± 2.3 | 2.205 ± 0.047
323.22 K, 40020 kPa, x1 = 0.1013 | 783.4 ± 2.4 | 2.69 ± 0.057
323.22 K, 60000 kPa, x1 = 0.1013 | 791.6 ± 2.4 | 3.255 ± 0.068
323.22 K, 78560 kPa, x1 = 0.1013 | 801.7 ± 2.4 | 3.927 ± 0.082
323.23 K, 20400 kPa, x1 = 0.2976 | 769.6 ± 2.6 | 2.151 ± 0.047
323.23 K, 21720 kPa, x1 = 0.2976 | 770.4 ± 2.4 | 2.147 ± 0.12
323.23 K, 21740 kPa, x1 = 0.2976 | 770.3 ± 2.4 | 2.146 ± 0.12
323.23 K, 40220 kPa, x1 = 0.2976 | 781.5 ± 2.4 | 2.597 ± 0.055
323.23 K, 60040 kPa, x1 = 0.2976 | 791.5 ± 2.4 | 3.162 ± 0.067
323.23 K, 79910 kPa, x1 = 0.2976 | 800.3 ± 2.4 | 3.859 ± 0.081
323.26 K, 14530 kPa, x1 = 0.3979 | 763.7 ± 2.3 | 1.887 ± 0.043
323.26 K, 14750 kPa, x1 = 0.3979 | 763.9 ± 2.3 | 1.918 ± 0.044
323.26 K, 20040 kPa, x1 = 0.3979 | 766.5 ± 2.3 | 2.058 ± 0.044
323.26 K, 40050 kPa, x1 = 0.3979 | 778.7 ± 2.4 | 2.56 ± 0.054
323.32 K, 10010 kPa, x1 = 0.2021 | 756.6 ± 2.3 | 1.901 ± 0.04
323.32 K, 20100 kPa, x1 = 0.2021 | 763.2 ± 2.3 | 2.147 ± 0.045
323.32 K, 39150 kPa, x1 = 0.2021 | 775.8 ± 2.4 | 2.576 ± 0.054
373.2 K, 10050 kPa, x1 = 0.2021 | 721.1 ± 2.5 | 0.926 ± 0.036
373.2 K, 12610 kPa, x1 = 0.2021 | 723.4 ± 2.2 | 0.951 ± 0.021
373.2 K, 20020 kPa, x1 = 0.2021 | 729.5 ± 2.2 | 1.037 ± 0.022
373.2 K, 40260 kPa, x1 = 0.2021 | 744.4 ± 2.3 | 1.27 ± 0.027
373.2 K, 60350 kPa, x1 = 0.2021 | 757.1 ± 2.3 | 1.521 ± 0.032
373.2 K, 65050 kPa, x1 = 0.2021 | 759.8 ± 2.3 | 1.586 ± 0.034
373.26 K, 10000 kPa, x1 = 0.1013 | 732.3 ± 2.2 | 0.967 ± 0.022
373.26 K, 20170 kPa, x1 = 0.1013 | 740.6 ± 2.2 | 1.112 ± 0.024
373.26 K, 40110 kPa, x1 = 0.1013 | 754.5 ± 2.3 | 1.334 ± 0.029
373.26 K, 60080 kPa, x1 = 0.1013 | 767.4 ± 2.3 | 1.571 ± 0.034
373.26 K, 80130 kPa, x1 = 0.1013 | 777.3 ± 2.3 | 1.897 ± 0.043
373.41 K, 24090 kPa, x1 = 0.2976 | 738.5 ± 2.2 | 1.04 ± 0.022
373.41 K, 24100 kPa, x1 = 0.2976 | 738.2 ± 2.2 | 1.038 ± 0.022
373.41 K, 40140 kPa, x1 = 0.2976 | 749.9 ± 2.3 | 1.222 ± 0.026
373.41 K, 60030 kPa, x1 = 0.2976 | 762.2 ± 2.3 | 1.465 ± 0.031
373.41 K, 80100 kPa, x1 = 0.2976 | 773.7 ± 2.3 | 1.749 ± 0.04
373.47 K, 16680 kPa, x1 = 0.3979 | 730.1 ± 2.2 | 0.921 ± 0.031
373.47 K, 16740 kPa, x1 = 0.3979 | 729.9 ± 2.2 | 0.942 ± 0.032
373.47 K, 20010 kPa, x1 = 0.3979 | 732.4 ± 2.2 | 0.97 ± 0.041
373.47 K, 40020 kPa, x1 = 0.3979 | 747.6 ± 2.3 | 1.17 ± 0.026
373.47 K, 54720 kPa, x1 = 0.3979 | 756.7 ± 2.3 | 1.365 ± 0.029
373.47 K, 56030 kPa, x1 = 0.3979 | 757.3 ± 2.3 | 1.364 ± 0.029
423.24 K, 10310 kPa, x1 = 0.2021 | 686.8 ± 2.2 | 0.557 ± 0.012
423.24 K, 10870 kPa, x1 = 0.2021 | 687.6 ± 2.2 | 0.556 ± 0.012
423.24 K, 10900 kPa, x1 = 0.2021 | 687.1 ± 2.2 | 0.557 ± 0.012
423.24 K, 20030 kPa, x1 = 0.2021 | 697.4 ± 2.1 | 0.625 ± 0.014
423.24 K, 40040 kPa, x1 = 0.2021 | 715.6 ± 2.2 | 0.762 ± 0.017
423.24 K, 60080 kPa, x1 = 0.2021 | 730.3 ± 2.2 | 0.912 ± 0.02
423.24 K, 80150 kPa, x1 = 0.2021 | 743.2 ± 2.3 | 1.067 ± 0.023
423.31 K, 15700 kPa, x1 = 0.1013 | 707.2 ± 2.2 | 0.611 ± 0.014
423.31 K, 20010 kPa, x1 = 0.1013 | 711.8 ± 2.2 | 0.643 ± 0.015
423.31 K, 40030 kPa, x1 = 0.1013 | 728 ± 2.2 | 0.816 ± 0.018
423.31 K, 60000 kPa, x1 = 0.1013 | 744.5 ± 2.3 | –
423.31 K, 80070 kPa, x1 = 0.1013 | 754.2 ± 2.3 | 1.133 ± 0.025
423.58 K, 20510 kPa, x1 = 0.2976 | 703.1 ± 2.3 | 0.612 ± 0.014
423.58 K, 20550 kPa, x1 = 0.2976 | 703.3 ± 2.3 | 0.606 ± 0.014
423.58 K, 22750 kPa, x1 = 0.2976 | 705.4 ± 2.2 | 0.618 ± 0.018
423.58 K, 40090 kPa, x1 = 0.2976 | 720.8 ± 2.2 | 0.734 ± 0.016
423.58 K, 60240 kPa, x1 = 0.2976 | 735.9 ± 2.2 | 0.873 ± 0.019
423.58 K, 80360 kPa, x1 = 0.2976 | 748.5 ± 2.3 | 1.03 ± 0.023
423.94 K, 16530 kPa, x1 = 0.3979 | 696.8 ± 2.1 | 0.565 ± 0.013
423.94 K, 16610 kPa, x1 = 0.3979 | 697.1 ± 2.1 | 0.555 ± 0.013
423.94 K, 20030 kPa, x1 = 0.3979 | 700.1 ± 2.2 | 0.587 ± 0.017
423.94 K, 40010 kPa, x1 = 0.3979 | 718.3 ± 2.2 | 0.717 ± 0.016
423.94 K, 56150 kPa, x1 = 0.3979 | 730.8 ± 2.2 | 0.822 ± 0.018
473.17 K, 40030 kPa, x1 = 0.1013 | 705.1 ± 2.2 | 0.591 ± 0.013
473.17 K, 60040 kPa, x1 = 0.1013 | 721.8 ± 2.2 | 0.687 ± 0.015
473.17 K, 80060 kPa, x1 = 0.1013 | 735.5 ± 2.2 | 0.794 ± 0.017
473.36 K, 12980 kPa, x1 = 0.2021 | 656.9 ± 2.1 | 0.388 ± 0.009
473.36 K, 13010 kPa, x1 = 0.2021 | 656.8 ± 2.1 | 0.387 ± 0.009
473.36 K, 20070 kPa, x1 = 0.2021 | 666.6 ± 2.1 | 0.425 ± 0.01
473.36 K, 40070 kPa, x1 = 0.2021 | 688.4 ± 2.1 | 0.53 ± 0.012
473.36 K, 60040 kPa, x1 = 0.2021 | 706.1 ± 2.1 | 0.627 ± 0.014
473.36 K, 80030 kPa, x1 = 0.2021 | 720.5 ± 2.2 | 0.732 ± 0.016
473.4 K, 24480 kPa, x1 = 0.2976 | 676.6 ± 2.1 | 0.431 ± 0.01
473.4 K, 24500 kPa, x1 = 0.2976 | 676.6 ± 2.1 | 0.427 ± 0.01
473.4 K, 40130 kPa, x1 = 0.2976 | 693.5 ± 2.1 | 0.501 ± 0.012
473.4 K, 60110 kPa, x1 = 0.2976 | 710.7 ± 2.2 | 0.6 ± 0.014
473.4 K, 79930 kPa, x1 = 0.2976 | 724.7 ± 2.2 | 0.717 ± 0.016
473.68 K, 22720 kPa, x1 = 0.3979 | 673.5 ± 2.1 | 0.42 ± 0.01
473.68 K, 25730 kPa, x1 = 0.3979 | 676.9 ± 2.1 | 0.435 ± 0.01
473.68 K, 40080 kPa, x1 = 0.3979 | 692.4 ± 2.1 | 0.502 ± 0.012
473.68 K, 60000 kPa, x1 = 0.3979 | 709.8 ± 2.2 | 0.596 ± 0.013
473.68 K, 80230 kPa, x1 = 0.3979 | 724.2 ± 2.2 | 0.704 ± 0.016
